Values after ≈ are worked out from the molar mass of the structure shown. Non-standard residues stand in square brackets, D forms with d. Residues, ends and D or L forms follow the SMILES beside them. *: point of attachment. Palmitoyl = CCCCCCCCCCCCCCCC(=O)*; Lauroyl = CCCCCCCCCCCC(=O)*; Hexanoyl = CCCCCC(=O)*
Columns and labels:
Type in all cases: cell-based
[1] = tested on: Candida albicans ATCC 18804; assay: MIC in yeasts, NCCLS M27-A2 broth microdilution, RPMI 1640 (Table 9, letter e); settings: ATCC 18804
Procedure: Briefly, RPMI 1640 supplemented with glutamine and phenol red as a pH indicator was used in the broth microdilution method. A 96-well plate was inoculated so that the final inoculum of yeast for each well contained between 0.5×10^3 and 2.5×10^3 CFU/milliliter. […] Plates were incubated for 24 to 48 hours at 37° C. The lowest concentration of peptide that contained no visible growth was determined as the MIC. MIC values that utilized this method of MIC determination are indicated in Table 9 with a subscript letter “e.” “Peptide Number” corresponds to peptide compositions and corresponding designations in Table 3.

[2] = tested on: Staphylococcus aureus ATCC 29213; assay: MIC, NCCLS M7-A6 broth microdilution, cation-adjusted Mueller Hinton broth (Table 9, no superscript); settings: ATCC 29213
Summary of the method: (§1)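 Broth microdilution in cation-adjusted Mueller Hinton broth, log-phase inoculum giving 5×10^5 to 1×10^6 CFU/milliliter per well. Overnight incubation at 37° C. MIC taken as lowest peptide concentration with no visible turbidity versus a no-peptide control.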

[3] = tested on: Pseudomonas aeruginosa ATCC 27853; assay: MIC, NCCLS M7-A6 broth microdilution (Table 9, no superscript); settings: ATCC 27853
Summary of the method: as §1

[4] = tested on: Escherichia coli ATCC 25922; assay: as above; settings: ATCC 25922
Summary of the method: as §1

[5] = tested on: Staphylococcus epidermidis ATCC 12228; assay: as above; settings: ATCC 12228
Summary of the method: as §1

Salmonella dublin (Lane) = assay: as above
Summary of the method: as §1

MIC C. albicans [1] | MIC S. aureus [2] | MIC P. aeruginosa [3] | MIC E. coli [4] | MIC S. epidermidis [5] | MIC S. dublin (Salmonella dublin (Lane)) | Compound
>64e ug/mL | >32 µg/mL | >64 µg/mL | >64 µg/mL | 64 µg/mL (≈ 55.4 µM) | >64 µg/mL | CCCCCCCCCCCC(=O)N[C@@H](CCCNC(=N)N)C(=O)N[C@@H](CO)C(=O)N[C@@H](CCCNC(=N)N)C(=O)N[C@@H](Cc1c[nH]c2ccccc12)C(=O)N[C@@H](CCCNC(=N)N)C(=O)N[C@@H](CC(=O)O)C(=O)N[C@H](C(N)=O)C(C)C [Peptide 103, Lauryl-RSRWRDV-NH2] (Lauroyl-RSRWRDV-NH2)
>64e ug/mL | >64 µg/mL | – | – | – | >64 µg/mL | CCCCCCCCCCCC(=O)N[C@@H](Cc1c[nH]c2ccccc12)C(=O)N[C@@H](CCCNC(=N)N)C(=O)N[C@@H](CC(=O)O)C(=O)N[C@H](C(=O)N[C@@H](C)C(=O)N[C@@H](CCCNC(=N)N)C(=O)N[C@@H](CC(N)=O)C(=O)N[C@@H](Cc1ccccc1)C(=O)N[C@@H](CCSC)C(=O)N[C@@H](CCCNC(=N)N)C(N)=O)C(C)C [Peptide 112, Lauryl-WRDVARNFMR-NH2] (Lauroyl-WRDVARNFMR-NH2)
16e ug/mL | 32 µg/mL (≈ 21.4 µM) | 64 µg/mL (≈ 42.8 µM) | >64 µg/mL | 16 µg/mL (≈ 10.7 µM) | >64 µg/mL | CCCCCCCCCCCC(=O)N[C@H](CCCNC(=N)N)C(=O)N[C@H](CO)C(=O)N[C@H](CCCNC(=N)N)C(=O)N[C@H](Cc1c[nH]c2ccccc12)C(=O)N[C@H](CCCNC(=N)N)C(=O)N[C@H](CC(=O)O)C(=O)N[C@@H](C(=O)N[C@H](C)C(=O)N[C@H](CCCNC(=N)N)C(=O)N[C@H](CC(N)=O)C(N)=O)C(C)C [Peptide 117, Lauryl-rsrwrdvarn-NH2] (Lauroyl-[dR][dS][dR][dW][dR][dD][dV][dA][dR][dN]-NH2)
– | 8 µg/mL (≈ 4.33 µM) | 8 µg/mL (≈ 4.33 µM) | 8 µg/mL (≈ 4.33 µM) | 4 µg/mL (≈ 2.17 µM) | 8 µg/mL (≈ 4.33 µM) | CCCCCCCCCCCC(=O)N[C@H](CCCNC(=N)N)C(=O)N[C@H](CO)C(=O)N[C@H](CCCNC(=N)N)C(=O)N[C@H](Cc1c[nH]c2ccccc12)C(=O)N[C@H](C)C(=O)N[C@H](CC(=O)O)C(=O)N[C@@H](C(=O)N[C@H](C)C(=O)N[C@H](CCCNC(=N)N)C(=O)N[C@H](CC(N)=O)C(=O)N[C@H](Cc1ccccc1)C(=O)N[C@H](CCSC)C(=O)N[C@H](CCCNC(=N)N)C(N)=O)C(C)C [Peptide 229, Lauryl-rsrwadvarnfmr-NH2] (Lauroyl-[dR][dS][dR][dW][dA][dD][dV][dA][dR][dN][dF][dM][dR]-NH2)
– | >64 µg/mL | >64 µg/mL | >64 µg/mL | 4 µg/mL (≈ 2.17 µM) | >64 µg/mL | CCCCCCCCCCCC(=O)N[C@H](CCCNC(=N)N)C(=O)N[C@H](CO)C(=O)N[C@H](CCCNC(=N)N)C(=O)N[C@H](Cc1c[nH]c2ccccc12)C(=O)N[C@H](CCCNC(=N)N)C(=O)N[C@H](CC(=O)O)C(=O)N[C@@H](C(=O)N[C@H](C)C(=O)N[C@H](C)C(=O)N[C@H](CC(N)=O)C(=O)N[C@H](Cc1ccccc1)C(=O)N[C@H](CCSC)C(=O)N[C@H](CCCNC(=N)N)C(N)=O)C(C)C [Peptide 230, Lauryl-rsrwrdvaanfmr-NH2] (Lauroyl-[dR][dS][dR][dW][dR][dD][dV][dA][dA][dN][dF][dM][dR]-NH2)
– | 32 µg/mL (≈ 17.3 µM) | 32 µg/mL (≈ 17.3 µM) | >64 µg/mL | 4 µg/mL (≈ 2.17 µM) | >64 µg/mL | CCCCCCCCCCCC(=O)N[C@H](CCCNC(=N)N)C(=O)N[C@H](CO)C(=O)N[C@H](CCCNC(=N)N)C(=O)N[C@H](Cc1c[nH]c2ccccc12)C(=O)N[C@H](CCCNC(=N)N)C(=O)N[C@H](CC(=O)O)C(=O)N[C@@H](C(=O)N[C@H](C)C(=O)N[C@H](CCCNC(=N)N)C(=O)N[C@H](CC(N)=O)C(=O)N[C@H](Cc1ccccc1)C(=O)N[C@H](CCSC)C(=O)N[C@H](C)C(N)=O)C(C)C [Peptide 231, Lauryl-rsrwrdvarnfma-NH2] (Lauroyl-[dR][dS][dR][dW][dR][dD][dV][dA][dR][dN][dF][dM][dA]-NH2)
– | >64 µg/mL | >64 µg/mL | >64 µg/mL | 16 µg/mL (≈ 8.73 µM) | >64 µg/mL | CCCCCCCCCCCC(=O)N[C@H](CCCNC(=N)N)C(=O)N[C@H](CO)C(=O)N[C@H](CCCNC(=N)N)C(=O)N[C@H](CO)C(=O)N[C@H](CCCNC(=N)N)C(=O)N[C@H](CC(=O)O)C(=O)N[C@@H](C(=O)N[C@H](C)C(=O)N[C@H](CCCNC(=N)N)C(=O)N[C@H](CC(N)=O)C(=O)N[C@H](Cc1ccccc1)C(=O)N[C@H](CCSC)C(=O)N[C@H](CCCNC(=N)N)C(N)=O)C(C)C [Peptide 232, Lauryl-rsrsrdvarnfmr-NH2] (Lauroyl-[dR][dS][dR][dS][dR][dD][dV][dA][dR][dN][dF][dM][dR]-NH2)
– | 64 µg/mL (≈ 34.2 µM) | >64 µg/mL | >64 µg/mL | 16 µg/mL (≈ 8.55 µM) | 64 µg/mL (≈ 34.2 µM) | CCCCCCCCCCCC(=O)N[C@H](CCCNC(=N)N)C(=O)N[C@H](CO)C(=O)N[C@H](CCCNC(=N)N)C(=O)N[C@H](Cc1c[nH]c2ccccc12)C(=O)N[C@H](CCCNC(=N)N)C(=O)N[C@H](CC(=O)O)C(=O)N[C@@H](C(=O)N[C@H](C)C(=O)N[C@H](CCCNC(=N)N)C(=O)N[C@H](CC(N)=O)C(=O)N[C@H](CO)C(=O)N[C@H](CCSC)C(=O)N[C@H](CCCNC(=N)N)C(N)=O)C(C)C [Peptide 234, Lauryl-rsrwrdvarnsmr-NH2] (Lauroyl-[dR][dS][dR][dW][dR][dD][dV][dA][dR][dN][dS][dM][dR]-NH2)
– | 16 µg/mL (≈ 8.48 µM) | 64 µg/mL (≈ 33.9 µM) | 16 µg/mL (≈ 8.48 µM) | 8 µg/mL (≈ 4.24 µM) | 32 µg/mL (≈ 17 µM) | CCCCCCCCCCCC(=O)N[C@H](CCCNC(=N)N)C(=O)N[C@H](CO)C(=O)N[C@H](CCCNC(=N)N)C(=O)N[C@H](Cc1c[nH]c2ccccc12)C(=O)N[C@H](CCCNC(=N)N)C(=O)N[C@H](CC(=O)O)C(=O)N[C@@H](C(=O)N[C@H](C)C(=O)N[C@H](CCCNC(=N)N)C(=O)N[C@H](CC(N)=O)C(=O)N[C@H](Cc1ccccc1)C(=O)N[C@H](CO)C(=O)N[C@H](CCCNC(=N)N)C(N)=O)C(C)C [Peptide 235, Lauryl-rsrwrdvarnfsr-NH2] (Lauroyl-[dR][dS][dR][dW][dR][dD][dV][dA][dR][dN][dF][dS][dR]-NH2)
– | 32 µg/mL (≈ 17.3 µM) | >64 µg/mL | 64 µg/mL (≈ 34.7 µM) | 16 µg/mL (≈ 8.67 µM) | >64 µg/mL | CCCCCCCCCCCC(=O)N[C@H](C)C(=O)N[C@H](CO)C(=O)N[C@H](CCCNC(=N)N)C(=O)N[C@H](Cc1c[nH]c2ccccc12)C(=O)N[C@H](CCCNC(=N)N)C(=O)N[C@H](CC(=O)O)C(=O)N[C@@H](C(=O)N[C@H](C)C(=O)N[C@H](CCCNC(=N)N)C(=O)N[C@H](CC(N)=O)C(=O)N[C@H](Cc1ccccc1)C(=O)N[C@H](CCSC)C(=O)N[C@H](CCCNC(=N)N)C(N)=O)C(C)C [Peptide 236, Lauryl-asrwrdvarnfmr-NH2] (Lauroyl-[dA][dS][dR][dW][dR][dD][dV][dA][dR][dN][dF][dM][dR]-NH2)
– | 32 µg/mL (≈ 27.7 µM) | >64 µg/mL | 64 µg/mL (≈ 55.5 µM) | 64 µg/mL (≈ 55.5 µM) | >64 µg/mL | CCCCCCCCCCCC(=O)N[C@H](CCCNC(=N)N)C(=O)N[C@H](Cc1c[nH]c2ccccc12)C(=O)N[C@H](CCCNC(=N)N)C(=O)N[C@H](CC(=O)O)C(=O)N[C@H](CC(C)C)C(=O)N[C@H](C)C(=O)N[C@H](CCCNC(=N)N)C(N)=O [Peptide 244, Lauryl-rwrdlar-NH2] (Lauroyl-[dR][dW][dR][dD][dL][dA][dR]-NH2)
64e ug/mL | – | – | – | – | – | CCCCCC(=O)N[C@H](CCCNC(=N)N)C(=O)N[C@H](CO)C(=O)N[C@H](CCCNC(=N)N)C(=O)N[C@H](Cc1c[nH]c2ccccc12)C(=O)N[C@H](CCCNC(=N)N)C(=O)N[C@H](CC(=O)O)C(=O)N[C@@H](C(=O)N[C@H](C)C(=O)N[C@H](CCCNC(=N)N)C(=O)N[C@H](CC(N)=O)C(=O)N[C@H](Cc1ccccc1)C(=O)N[C@H](CC(C)C)C(=O)N[C@H](CCCNC(=N)N)C(N)=O)C(C)C [Peptide 251, Hexyl-rsrwrdvarnflr-NH2] (Hexanoyl-[dR][dS][dR][dW][dR][dD][dV][dA][dR][dN][dF][dL][dR]-NH2)
– | 32 µg/mL (≈ 16.2 µM) | 64 µg/mL (≈ 32.5 µM) | >64 µg/mL | 4 µg/mL (≈ 2.03 µM) | >64 µg/mL | CCCCCCCCCCCCCCCC(=O)N[C@H](CCCNC(=N)N)C(=O)N[C@H](CO)C(=O)N[C@H](CCCNC(=N)N)C(=O)N[C@H](Cc1c[nH]c2ccccc12)C(=O)N[C@H](CCCNC(=N)N)C(=O)N[C@H](CC(=O)O)C(=O)N[C@@H](C(=O)N[C@H](C)C(=O)N[C@H](CCCNC(=N)N)C(=O)N[C@H](CC(N)=O)C(=O)N[C@H](Cc1ccccc1)C(=O)N[C@H](CC(C)C)C(=O)N[C@H](CCCNC(=N)N)C(N)=O)C(C)C [Peptide 254, Palmityl-rsrwrdvarnflr-NH2] (Palmitoyl-[dR][dS][dR][dW][dR][dD][dV][dA][dR][dN][dF][dL][dR]-NH2)

Source: patent publication US20050282755A1, “Compositions having antimicrobial activity and uses thereof” (priority 2004, published 2005)
